Experimental data taken from patent US20250090689A1, “[…] FOR TREATING EPILEPSY AND NEUROPATHIC PAIN” (Trames Bio, Inc., priority 2022, published 2025).

Molecular target: T1, CODA71 receptor (Homo sapiens, UniProt P36544, F159M/H163T/I152M/R155K/V154L/W156N/Y151P)
T1 construct: expressed in transfected cells; host or cells: mouse brain neurons transduced in vivo with AAV carrying expression cassettes #11, #13, #33, #34, #35, #36 (KA focal epilepsy model)
Assay: kainic acid (KA) focal epilepsy mouse model, seizure frequency after repeated dosing of TC-5619
Format: in vivo
Text: Six expression cassettes—#11, #13, #33, #34, #35, and #36 in Table 2—were each packaged into the AAV vector and tested in a kainic acid (KA) focal epilepsy mouse model. The animals were then monitored for seizure frequency following repeated dosing of TC-5619, an activator of the CODA71 receptor transgene encoded by these expression cassettes.

T1 sequence (P36544 with tags, fused parts or gaps Y151P/I152M/V154L/R155K/W156N/F159M/H163T): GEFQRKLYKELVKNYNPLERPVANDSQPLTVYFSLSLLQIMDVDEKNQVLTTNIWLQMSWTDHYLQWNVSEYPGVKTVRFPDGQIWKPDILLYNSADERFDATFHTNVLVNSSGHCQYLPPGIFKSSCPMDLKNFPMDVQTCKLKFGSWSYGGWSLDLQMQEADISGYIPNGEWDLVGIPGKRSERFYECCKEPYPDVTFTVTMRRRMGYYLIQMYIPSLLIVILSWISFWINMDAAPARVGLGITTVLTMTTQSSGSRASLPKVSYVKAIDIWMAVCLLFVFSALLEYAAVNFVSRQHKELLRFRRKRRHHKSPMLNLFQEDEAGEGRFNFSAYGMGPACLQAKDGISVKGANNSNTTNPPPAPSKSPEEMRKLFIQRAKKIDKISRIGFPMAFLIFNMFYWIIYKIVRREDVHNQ

In the case of O=C(N[C@@H]1C2CCN(CC2)[C@H]1Cc1cccnc1)c1cc2ccccc2o1 [TC-5619], the seizure burden (higher dose ranges of TC-5619, KA mice with AAV-delivered CODA71 cassettes) is reported as “significantly reduced seizure burden”, the seizure frequency (repeated dosing of TC-5619 in KA mice injected with AAV carrying cassettes #11, #13, #33, #34, #35 or #36, FIG. 7) is reported as “dose-dependent reduction of seizure frequency” and the “residual effect after washout (return to baseline)” value (repeated single doses of TC-5619 followed by washout) is reported as “no residual effect”.
